Test results reported in patent US20240254115A1 (ACONDICIONAMIENTO TARRASENSE, priority 2021, published 2024).

How the values were obtained:
[1] = target: T1, human σ1 receptor (Homo sapiens, UniProt Q99720); assay: Human σ1 receptor radioligand assay; conditions: transfected HEK-293 membranes, 5 nM [3H](+)-pentazocine, 37° C. 120 minutes; + may also stand for 1-50% inhibition at 1 or 10 μM; read-out: Binding σ-1 Ki
T1 construct: expressed in transfected cells; host or cells: HEK-293
Description: Human σ1 Receptor Radioligand Assay
Transfected HEK-293 membranes (7 μg) were incubated with 5 nM of [^3H](+)-pentazocine in assay buffer containing Tris-HCl 50 mM at pH 8. NBS (non-specific binding) was measured by adding 10 μM haloperidol. The binding of the test compound was measured at either one concentration (% inhibition at 1 or 10 μM) or five different concentrations to determine affinity values (Ki). Plates were incubated at 37° C. for 120 minutes. After the incubation period, the reaction mix was then transferred to MultiScreen HTS, FC plates (Millipore), filtered and plates were washed 3 times with ice-cold 10 mM Tris-HCL (pH7.4). Filters were dried and counted at approximately 40% efficiency in a MicroBeta scintillation counter (Perkin-Elmer) using EcoScint liquid scintillation cocktail.

[2] = target: T2, human σ2/TMEM97 receptor (Homo sapiens, UniProt Q5BJF2); assay: Binding assay to human σ2/TMEM97 receptor; conditions: transfected HEK-293 membranes, 10 nM [3H]-DTG, 25° C. 120 minutes; + may also stand for 1-50% inhibition at 1 or 10 μM; read-out: Binding σ-2 Ki
T2 construct: expressed in transfected cells; host or cells: HEK-293
Description: Binding Assay to Human σ2/TMEM97 Receptor
Transfected HEK-293 membranes (15 μg) were incubated with 10 nM [^3H]-1,3-Di-o-tolylguanidine (DTG) in assay buffer containing Tris-HCl 50 mM at pH 8.0. NSB (non-specific binding) was measured by adding 10 μM haloperidol. The binding of the test compound was measured at either one concentration (% inhibition at 1 or 10 μM) or five different concentrations to determine affinity values (Ki). Plates were incubated at 25° C. for 120 minutes. After the incubation period, the reaction mix was transferred to MultiScreen HTS, FC plates (Millipore), filtered and washed 3 times with ice-cold 10 mM Tris-HCL (pH 8.0). Filters were dried and counted at approximately 40% efficiency in a MicroBeta scintillation counter (Perkin-Elmer) using EcoScint liquid scintillation cocktail.

T2 sequence (Q5BJF2 whole entry): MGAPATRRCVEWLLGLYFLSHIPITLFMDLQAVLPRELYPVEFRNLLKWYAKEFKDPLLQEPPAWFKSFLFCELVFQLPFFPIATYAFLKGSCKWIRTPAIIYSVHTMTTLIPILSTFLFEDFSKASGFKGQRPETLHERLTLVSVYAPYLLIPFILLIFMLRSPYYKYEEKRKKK
T1 sequence (Q99720 whole entry): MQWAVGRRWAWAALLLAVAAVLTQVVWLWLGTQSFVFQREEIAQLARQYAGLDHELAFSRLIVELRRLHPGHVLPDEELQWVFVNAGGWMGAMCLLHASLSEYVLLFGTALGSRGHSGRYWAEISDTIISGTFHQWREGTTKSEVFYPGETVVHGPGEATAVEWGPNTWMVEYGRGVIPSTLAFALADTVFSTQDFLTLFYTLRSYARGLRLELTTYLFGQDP

Row | Ki [1] [nM] | Ki [2] [nM] | SMILES
1 | 500 to 1000 | < 100 | COc1ccc(CNC[C@@H]2CCCN(S(=O)(=O)c3ccc(N4CCOCC4)nc3)C2)cn1 [Example 34, (S)-1-(6-Methoxypyridin-3-yl)-N-((1-((6-morpholinopyridin-3-yl)sulfonyl)piperidin-3-yl)methyl) methanamine]
2 | < 100 | > 1000 | O=S(=O)(N[C@H]1CCN(Cc2cccc(F)c2)C1)c1ccc(N2CCOCC2)nc1 [Example 35, (S)—N-(1-(3-Fluorobenzyl)pyrrolidin-3-yl)-6-morpholinopyridine-3-sulfonamide]
3 | < 100 | > 1000 | O=S(=O)(N[C@@H]1CCN(Cc2ccc(F)cc2)C1)c1ccc(N2CCOCC2)nc1 [Example 36, (R)-N-(1-(4-Fluorobenzyl)pyrrolidin-3-yl)-6-morpholinopyridine-3-sulfonamide]
4 | < 100 | > 1000 | N#Cc1ccc(CN2CC[C@@H](NS(=O)(=O)c3ccc(N4CCOCC4)nc3)C2)cc1 [Example 37, (R)-N-(1-(4-Cyanobenzyl)pyrrolidin-3-yl)-6-morpholinopyridine-3-sulfonamide]
5 | < 100 | > 1000 | O=S(=O)(N[C@@H]1CCN(Cc2cccc(F)c2)C1)c1ccc(N2CCOCC2)nc1 [Example 38, (R)-N-(1-(3-Fluorobenzyl)pyrrolidin-3-yl)-6-morpholinopyridine-3-sulfonamide]
6 | < 100 | > 1000 | N#Cc1ccc(CN2CC[C@H](NS(=O)(=O)c3ccc(N4CCOCC4)nc3)C2)cc1 [Example 39, (S)-N-(1-(4-Cyanobenzyl)pyrrolidin-3-yl)-6-morpholinopyridine-3-sulfonamide]
7 | 100 to 500 | > 1000 | N#Cc1cccc(CN2CC[C@@H](NS(=O)(=O)c3ccc(N4CCOCC4)nc3)C2)c1 [Example 40, (R)-N-(1-(3-Cyanobenzyl)pyrrolidin-3-yl)-6-morpholinopyridine-3-sulfonamide]
8 | < 100 | > 1000 | O=S(=O)(N[C@H]1CCN(Cc2ccc(F)cc2)C1)c1ccc(N2CCOCC2)nc1 [Example 41, (S)-N-(1-(4-Fluorobenzyl)pyrrolidin-3-yl)-6-morpholinopyridine-3-sulfonamide]
9 | 500 to 1000 | > 1000 | N#Cc1cccc(CN2CC[C@H](NS(=O)(=O)c3ccc(N4CCOCC4)nc3)C2)c1 [Example 42, (S)-N-(1-(3-Cyanobenzyl)pyrrolidin-3-yl)-6-morpholinopyridine-3-sulfonamide]
10 | < 100 | > 1000 | O=S(=O)(NC1CN(Cc2ccccc2)C1)c1ccc(N2CCOCC2)nc1 [Example 43, N-(1-Benzylazetidin-3-yl)-6-morpholinopyridine-3-sulfonamide]
11 | 500 to 1000 | > 1000 | O=S(=O)(N[C@@H]1CCN(Cc2ccc(C(F)(F)F)nc2)C1)c1ccc(N2CCOCC2)nc1 [Example 44, (R)-6-Morpholino-N-(1-((6-(trifluoromethyl)pyridin-3-yl)methyl)pyrrolidin-3-yl)pyridine-3-sulfonamide]
12 | 500 to 1000 | 100 to 500 | O=S(=O)(c1ccc(N2CCOCC2)nc1)N1CCC2(CCN(Cc3ccccc3)CC2)C1 [Example 45, 4-(5-((8-Benzyl-2,8-diazaspiro[4.5]decan-2-yl)sulfonyl)pyridin-2-yl)morpholine]
13 | > 1000 | 100 to 500 | O=S(=O)(NC1CC2(CCN(Cc3ccccc3)CC2)C1)c1ccc(N2CCOCC2)nc1 [Example 46, N-(7-Benzyl-7-azaspiro[3.5]nonan-2-yl)-6-morpholinopyridine-3-sulfonamide]
14 | > 1000 | 100 to 500 | O=S(=O)(c1ccc(N2CCOCC2)nc1)N1CCC2(CC1)CN(Cc1ccccc1)C2 [Example 47, 4-(5-((2-Benzyl-2,7-diazaspiro[3.5]nonan-7-yl)sulfonyl)pyridin-2-yl)morpholine]
15 | > 1000 | < 100 | N#Cc1cccc(CN2CCC3(CC2)CCN(S(=O)(=O)c2ccc(N4CCOCC4)nc2)CC3)c1 [Example 48, 3-((9-((6-Morpholinopyridin-3-yl)sulfonyl)-3,9-diazaspiro[5.5]undecan-3-yl)methyl)benzonitrile]
16 | > 1000 | > 1000 | CC(C)N([C@@H]1CCN(Cc2ccc(C#N)cc2)C1)S(=O)(=O)c1ccc(N2CCOCC2)nc1 [Example 49, (R)—N-(1-(4-Cyanobenzyl)pyrrolidin-3-yl)-N-isopropyl-6-morpholinopyridine-3-sulfonamide]
17 | 500 to 1000 | > 1000 | CC(C)N([C@H]1CCN(Cc2ccc(C#N)cc2)C1)S(=O)(=O)c1ccc(N2CCOCC2)nc1 [Example 50, (S)-N-(1-(4-Cyanobenzyl)pyrrolidin-3-yl)-N-isopropyl-6-morpholinopyridine-3-sulfonamide]
18 | > 1000 | 100 to 500 | O=S(=O)(N[C@H]1CC[C@H](NCc2ccccc2)CC1)c1ccc(N2CCOCC2)nc1 [Example 51, N-((1 r,4r)-4-(Benzylamino)cyclohexyl)-6-morpholinopyridine-3-sulfonamide]
19 | > 1000 | 100 to 500 | N#Cc1cc(CN[C@H]2CC[C@H](NS(=O)(=O)c3ccc(N4CCOCC4)nc3)CC2)ccc1F [Example 52, N-((1r,4r)-4-((3-Cyano-4-fluorobenzyl)amino)cyclohexyl)-6-morpholinopyridine-3-sulfonamide]
20 | > 1000 | 100 to 500 | O=S(=O)(N[C@H]1CC[C@H](NCc2ccccc2F)CC1)c1ccc(N2CCOCC2)nc1 [Example 53, N-((1r,4r)-4-((2-Fluorobenzyl)amino)cyclohexyl)-6-morpholinopyridine-3-sulfonamide]
21 | 100 to 500 | 100 to 500 | O=S(=O)(N[C@H]1CC[C@H](NCc2cccc(F)c2)CC1)c1ccc(N2CCOCC2)nc1 [Example 54, N-((1r,4r)-4-((3-Fluorobenzyl)amino)cyclohexyl)-6-morpholinopyridine-3-sulfonamide]
22 | > 1000 | > 1000 | O=S(=O)(N[C@H]1CC[C@H](NCc2ccncc2)CC1)c1ccc(N2CCOCC2)nc1 [Example 55, 6-Morpholino-N-((1r,4r)-4-((pyridin-4-ylmethyl)amino)cyclohexyl)pyridine-3-sulfonamide]
23 | > 1000 | < 100 | CN(Cc1ccccc1F)[C@H]1CC[C@H](NS(=O)(=O)c2ccc(N3CCOCC3)nc2)CC1 [Example 56, N-((1r,4r)-4-((2-Fluorobenzyl)(methyl)amino)cyclohexyl)-6-morpholinopyridine-3-sulfonamide]
24 | > 1000 | < 100 | CN(Cc1cccc(F)c1)[C@H]1CC[C@H](NS(=O)(=O)c2ccc(N3CCOCC3)nc2)CC1 [Example 57, N-((1r,4r)-4-((3-Fluorobenzyl) (methyl)amino)cyclo-hexyl)-6-morpholinopyridine-3-sulfonamide]
25 | > 1000 | < 100 | CN(Cc1ccc(F)c(C#N)c1)[C@H]1CC[C@H](NS(=O)(=O)c2ccc(N3CCOCC3)nc2)CC1 [Example 58, N-((1r,4r)-4-((3-Cyano-4-Fluorobenzyl)(methyl)amino)cyclo-hexyl)-6-morpholinopyridine-3-sulfonamide]
26 | > 1000 | > 1000 | CN(Cc1cccnc1)[C@H]1CC[C@H](NS(=O)(=O)c2ccc(N3CCOCC3)nc2)CC1 [Example 59, N-((1r,4r)-4-(Methyl(pyridin-3-ylmethyl)amino)cyclohexyl)-6-morpholinopyridine-3-sulfonamide]
